From paper PMC12314576, “The Actin‐Binding Prolyl‐Isomerase Par17 Sustains Its Substrate Selectivity by Interdomain Allostery” (Proteins, 2025) come the findings set out here.

Starred links: 1 amine or outer side, 2 acyl side, 3 side chain; linkers in the order of their positions; H or OH if unused. Residues, ends and D or L forms follow the SMILES beside them. *: point of attachment. pNA = O=[N+]([O-])c1ccc(N*)cc1; Suc = O=C(CCC(=O)[*:2])[*:1]

Experiment [1] has as its target T1, Par17 (Homo sapiens, UniProt Q9Y237).
T1 construct: full‐length Par17 and the N‐terminus of Par17; GST-His6 (PreScission site) (N, cleaved yes); Gly-Pro remnant of the PreScission site (Gly stands at position 1 in place of Met1); made in house; host or cells: E. coli BL21 (DE3) T1r
As to the kind of experiment: Protease-coupled isomerase assay (PPIase assay) with Par17. The conditions noted are these: for k cat/K M of Par17, times higher than for Leu‐Pro, Gln‐Pro or His‐Pro peptides: ratio of k cat/K M values; for k = kobserved - kthermic, Par17: α-chymotrypsin 35 μM, PBS pH 6.8, 10°C, substrate 75 μM, PPIase 2 μM, absorbance 390 nm, mean ± SD. The format is biochemical. Here is the method: (§1) To determine the catalytic efficiency and substrate specificity of Par14 and Par17, we performed a protease‐coupled assay. In this assay, the trans form of a para‐nitroaniline (pNA) tagged model substrate is cleaved by chymotrypsin, and the resulting change in absorption at 390 nm due to free pNA is measured. When the model substrate is added to the protease‐containing buffer, all trans‐Xaa‐Pro isomers are immediately cleaved by chymotrypsin. Therefore, the extent of the first signal burst observed in the absorption spectrum correlates with the amount of trans isomers of the model substrate formed during the experimental dead time. The remaining cis‐Xaa substrates now start to isomerize by thermal (in the absence of PPIase) or catalytic reaction (in the presence of PPIase). The newly formed trans‐Xaa substrates are immediately cleaved, and isomerization can thus be monitored over time (Figure 2). Eighteen different substrate peptides with varying amino acids at the Xaa position (Suc‐Ala‐Xaa‐Pro‐Phe‐pNa) were measured to determine the isomerase activity and substrate selectivity of Par14 (Par17Δ1–25), Par17, and the catalytic domain (Par17Δ1–60) (Table S1). The catalytic efficiency is obtained from the observed isomerization curves by calculating the difference between the rate constant in the presence of enzyme and the rate constant obtained from thermal isomerization.
(§2) We determined the isomerase activity using the PPIase assay described by. The lyophilized peptides were dissolved in an adequate volume of 0.5 mM‐LiCl/TFE buffer to obtain a 15 mM stock solution. To achieve a stable cis/trans ratio the mixture was incubated overnight at 4°C. The next day a stock solution of 350 μM α‐chymotrypsin in PBS was incubated on ice for at least 20 min. For measurements without PPIase PBS buffer (pH 6.8) was mixed with α‐chymotrypsin to a final concentration of 35 μM in 1 mL. A baseline was recorded for 5 min (Cary 100Bio UV/Vis spectrophotometer, Varian/Agilent, Santa Clara, US, λ: 390 nm, bandwidth: 1.0 nm, average time between measurements: 0.5 s, temperature: 10°C). After 5 min the substrate peptide was added to a final concentration of 75 μM in 1 mL [59]. The solution was mixed by inverting the cuvette three times and the reaction was recorded for 15 min. Measurements in the presence of PPIase were performed in the same way, except that before the baseline measurement, the appropriate isomerase was added in a final concentration of 2 μM in 1 mL in addition to PBS and α‐chymotrypsin.
(§3) For the data analysis, a mean value of the baseline was subtracted (average of the first 200 data points). The measured values were normalized according to the respective maximum of the measurement. To determine the rate constant, the program graph pad was used, and non‐linear curve fitting was applied for each measurement (exponential, one‐phase association). (1) Y=Y0+Plateau−Y0∙1−e^−K∙x
(§4) where x is the time (min), Y is the absorbance, Y 0 is the absorbance when x = 0, Plateau is the Y value at infinite times, K is the rate constant (min^−1).
(§5) The K cat/K M value was calculated according to Equation (2): (2) kcat/KM=kobs−ktherm/PPIase where k cat/K M is the catalytic efficiency (M^−1 s^−1), k obs, rate constant of the observed reaction (s^−1), k therm is the rate constant of the thermic reaction (s^−1), and [PPIase] is the concentration of PPIase used in the assay (M).
(§6) The obtained data are fitted to Equation (2) using a pseudo first‐order assumption. This is the case, if k obs values behave linearly with rising PPIase concentrations.

The next experiment has as its target T2, Par14 (Par17Δ1-25) (Homo sapiens, UniProt Q9Y237).
T2 construct: Comparison of spectra of full‐length parvulin proteins and PPIase domain; GST-His6 (PreScission site) (N, cleaved yes); made in house; host or cells: E. coli BL21 (DE3) T1r
As to the kind of experiment: Protease-coupled isomerase assay (PPIase assay) with Par14. The note with it: α-chymotrypsin 35 μM, PBS pH 6.8, 10°C, substrate 75 μM, PPIase 2 μM, absorbance 390 nm; mean ± SD. The class given is biochemical. Here is the method:
as §1, §2, §3, §4, §5, §6

The target in experiment [2] is T3, PPIase domain (Par17Δ1-60) (Homo sapiens, UniProt Q9Y237).
T3 construct: GST-His6 (PreScission site) (N, cleaved yes); made in house; host or cells: E. coli BL21 (DE3) T1r
T3 sequence (Q9Y237 36-131, stated change not applied): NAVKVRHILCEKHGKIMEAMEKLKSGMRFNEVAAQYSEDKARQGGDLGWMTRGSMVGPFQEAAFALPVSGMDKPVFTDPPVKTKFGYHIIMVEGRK
The experiment in a line: Protease-coupled isomerase assay (PPIase assay) with the catalytic domain. The class given is biochemical. The conditions noted are these: α-chymotrypsin 35 μM, PBS pH 6.8, 10°C, substrate 75 μM, PPIase 2 μM, absorbance 390 nm; mean ± SD. The method, then:
as §1, §2, §3, §4, §5, §6

In experiment [3] the target is T1, Par17. The experiment in a line: NMR titration of substrate peptides to 15N-labeled full-length Par17. The class given is binding. The conditions noted are these: 300 μM Par17, KPi pH 6.7, 20°C. The method, then:
The amide signals were assigned and combined chemical shift changes between the signals of free and substrate‐bound isomers were calculated.
For NMR measurements, purified and concentrated proteins in salt‐free buffers were mixed with 10% D2O and 1 μL DSS standard. Spectra were measured on an ultra shield 700‐NMR (Bruker, Billerica, US) with a triple resonance cryoprobe (700 MHz). For recording and processing of data, the software Topspin 3.5 was used. Analysis of spectra was carried out using Cara analysis software 2.3.1 (Rochus L.J. Keller) and/or CcpNmr Analysis 2.3.1 (Department of Molecular and Cell Biology, University of Leicester, UK).
Titration of substrate peptides to ^ 15 N‐labeled full‐length Par17 and the N‐terminus of Par17: The following substrate peptides were diluted in salt‐free 50 mM KPi buffer pH 6.7 to a concentration of 15 mM (Suc: Succinyl, pNA: para‐Nitroanilin):
They were added stepwise to 200 μL of the labeled parvulins (300 μM in 50 mM KPi buffer pH 6.7). Spectra were recorded with the pulse program Best‐TROSY at 20°C. Combined chemical shifts were calculated as described. Microscopic dissociation constant K D was fitted with the following equation (assuming a 1:1 binding model): (4) ∆δ=∆δmax·P+x+KD−P+x+KD^2−4·x·P/2·P
where ∆δmax is the amplitude, P is the protein concentration, X is the concentration of the peptide.
Differences in chemical shift changes could be measured up to 0.001 ppm (error in peak picking). Changes were interpreted as significant if Δ > 0.004 ppm and when appearing consecutively in a linear sequence element.
The microscopic K D describes the binding affinity of the ligand to a single side of an amino acid.

Another experiment relates to Par17Δ61–156. As to the kind of experiment: NMR titration of substrate peptides to 15N-labeled N-terminus of Par17. The class given is binding, human. The conditions noted are these: 15N-BEST-TROSY-HSQC, 50 mM KPi pH 6.7, 20°C; protein 0.3 mM, substrate 3 mM. The text has this:
To elucidate the physical nature of the chemical shift changes in Par17 upon the addition of selected substrate peptides, we investigated whether the isolated N‐terminus of Par17 (Par17Δ61–156) is also capable of binding various substrates on its own. […] This indicates the existence of an independent binding epitope located within the N‐terminus.
In the next step, we studied if this binding epitope is selectively interacting with peptides carrying Xaa‐Pro motifs. We already knew from former studies that model peptides carrying alanine instead of proline in the Xaa position are capable of binding to the hydrophobic catalytic center without being catalyzed.
For NMR measurements, purified and concentrated proteins in salt‐free buffers were mixed with 10% D2O and 1 μL DSS standard. Spectra were measured on an ultra shield 700‐NMR (Bruker, Billerica, US) with a triple resonance cryoprobe (700 MHz). For recording and processing of data, the software Topspin 3.5 was used. Analysis of spectra was carried out using Cara analysis software 2.3.1 (Rochus L.J. Keller) and/or CcpNmr Analysis 2.3.1 (Department of Molecular and Cell Biology, University of Leicester, UK). […]
They were added stepwise to 200 μL of the labeled parvulins (300 μM in 50 mM KPi buffer pH 6.7). Spectra were recorded with the pulse program Best‐TROSY at 20°C. Combined chemical shifts were calculated as described. […]

T1 sequence (Q9Y237 1-156 isoform Q9Y237-2): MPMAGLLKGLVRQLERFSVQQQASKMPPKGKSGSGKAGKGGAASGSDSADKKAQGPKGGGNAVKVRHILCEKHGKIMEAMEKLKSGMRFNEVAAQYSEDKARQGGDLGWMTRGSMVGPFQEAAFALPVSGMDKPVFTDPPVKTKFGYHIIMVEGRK
T2 sequence (Q9Y237 whole entry, stated change not applied, the tested form may be a part): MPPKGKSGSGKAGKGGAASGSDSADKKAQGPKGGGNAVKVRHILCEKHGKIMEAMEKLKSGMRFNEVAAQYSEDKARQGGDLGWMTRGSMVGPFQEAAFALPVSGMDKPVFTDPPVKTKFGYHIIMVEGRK

In the case of `C[C@H](NC(=O)CCC(=O)O)C(=O)N[C@@H](CCCNC(=N)N)C(=O)N1CCC[C@H]1C(=O)N[C@@H](Cc1ccccc1)C(=O)Nc1ccc([N+](=O)[O-])cc1` [Arg, Suc‐Ala‐Arg‐Pro‐Phe‐pNa] (Suc-ARPF-pNA), the “k cat/K M of Par17, times higher than for Leu‐Pro, Gln‐Pro or His‐Pro peptides” value on Par17 [1] is recorded as “approximately 10 times”. Also, the “k = kobserved - kthermic, Par17” value on Par17 [1] was found to be 0.470 ± 0.037 min⁻¹. The “k = kobserved - kthermic, Par14 (Par17Δ1-25)” value at Par14 (Par17Δ1-25) was found to be 0.582 ± 0.094 min⁻¹. For the same compound, the “k = kobserved - kthermic, PPIase domain (Par17Δ1-60)” value in experiment [2] was found to be 0.683 ± 0.064 min⁻¹. Also, the “Combined chemical shift perturbation of full length Par17, 115M” value (“Combined chemical shift perturbation … 115M” below) is on record as 0,0060079 ppm at Par17 [3] (peptide 0,2 mM); 0,00801333 ppm at Par17 [3] (peptide 0,4 mM); 0,0143348 ppm at Par17 [3] (peptide 1 mM); 0,02655282 ppm on Par17 [3] (peptide 2 mM); 0,03809928 ppm on Par17 [3] (peptide 3 mM); 0,0454705 ppm at Par17 [3] (peptide 4 mM). The “Combined chemical shift perturbation … 115M” value at Par17 [3] (peptide 5 mM) is reported as 0,0546769 ppm. The “Combined chemical shift perturbation of full length Par17, 119F” value (shortened to “Combined chemical shift perturbation … 119F”) on Par17 [3] (peptide 0,2 mM) is on record as 0,00418543 ppm; at Par17 [3] (peptide 0,4 mM), 0,00841748 ppm; at Par17 [3] (peptide 1 mM) it was 0,01835824 ppm; at Par17 [3] (peptide 2 mM), 0,03376697 ppm; on Par17 [3] (peptide 3 mM), 0,04577626 ppm; on Par17 [3] (peptide 4 mM), 0,05474353 ppm. For the same compound, the “Combined chemical shift perturbation … 119F” value at Par17 [3] (peptide 5 mM) is listed as 0,06351885 ppm. Moreover, the “Combined chemical shift perturbation of full length Par17, 116V” value on Par17 [3] (peptide 0,4 mM) was 0,06817833 ppm; on Par17 [3] (peptide 1 mM), 0,13037308 ppm; on Par17 [3] (peptide 2 mM), 0,18551846 ppm; on Par17 [3] (peptide 3 mM), 0,23776807 ppm.

On to “Suc–Ala–Glu–Ala–Phe–pNA [proline-free model peptide carrying alanine instead of proline]”, for which the “binding to the N-terminal epitope of Par17” value in the experiment with Par17Δ61–156 is recorded as “interact with the N‐terminal epitope”.

Turning to `C[C@H](NC(=O)CCC(=O)O)C(=O)N[C@@H](CCCCN)C(=O)N1CCC[C@H]1C(=O)N[C@@H](Cc1ccccc1)C(=O)Nc1ccc([N+](=O)[O-])cc1` [Lys, Suc‐Ala‐Lys‐Pro‐Phe‐pNa], on Par17 [1], the “k cat/K M of Par17, times higher than for Leu‐Pro, Gln‐Pro or His‐Pro peptides” value is recorded as “approximately 10 times”. Also, the “k = kobserved - kthermic, Par17” value on Par17 [1] was found to be 0.33 ± 0.012 min⁻¹. Besides, the “k = kobserved - kthermic, Par14 (Par17Δ1-25)” value on Par14 (Par17Δ1-25) was 0.412 ± 0.014 min⁻¹. Moreover, in experiment [2], the “k = kobserved - kthermic, PPIase domain (Par17Δ1-60)” value was 0.442 ± 0.006 min⁻¹. Also, the “Combined chemical shift perturbation … 115M” value on Par17 [3] (peptide 0,2 mM) is 0,00414271 ppm; at Par17 [3] (peptide 1 mM), 0,01818939 ppm; on Par17 [3] (peptide 2 mM), 0,03362789 ppm; at Par17 [3] (peptide 3 mM) it was 0,04495973 ppm; at Par17 [3] (peptide 4 mM) it was 0,05828389 ppm; on Par17 [3] (peptide 5 mM), 0,06478417 ppm. The “Combined chemical shift perturbation … 119F” value on Par17 [3] (peptide 0,2 mM) is 0,00604921 ppm; on Par17 [3] (peptide 1 mM) it was 0,02459781 ppm; on Par17 [3] (peptide 2 mM), 0,04192915 ppm; on Par17 [3] (peptide 3 mM), 0,05880948 ppm; at Par17 [3] (peptide 4 mM), 0,07526515 ppm; on Par17 [3] (peptide 5 mM), 0,08126177 ppm. Further, the “Combined chemical shift perturbation of full length Par17, 116V” value was 0,06817833 ppm at Par17 [3] (peptide 1 mM), 0,13037308 ppm on Par17 [3] (peptide 2 mM), 0,18551846 ppm on Par17 [3] (peptide 3 mM) and 0,23776807 ppm at Par17 [3] (peptide 4 mM).
